Results as given in PubChem BioAssay (NCI).
Several values for one entry are separate records, joined by “and”; a condition that tells them apart may be missing. Identical values can stand only once.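 Exposure lasted 48 hours, with cells grown in 96-well plates and compounds tested at five concentrations. GI50 = concentration required for 50% inhibition of growth. Definition used: TGI = concentration required for complete inhibition of growth.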

These compounds were tested on HL-60(TB) leukemia (assay: growth of human tumour cells (NCI), 48 h).

Structure (SMILES)	TGI [µM]
O=C(CCC(=O)c1ccc(Cl)cc1)NO	> 100
COc1c(C)c(C/C=C(\C)CCCCO[Si](c2ccccc2)(c2ccccc2)C(C)(C)C)c(OC)c(OC)c1OC	> 100
CN1CCN([C@H]2C[C@H]3[C@@H]4CC=C5C[C@@H](O)CC[C@]5(C)[C@H]4CC[C@]3(C)C2=O)CC1	> 100
COc1ccc(C2c3cc4c(cc3OC(NNS(=O)(=O)c3ccc(C)cc3)C2C)OCO4)cc1 (stereo not drawn)	84.7
CNC(=O)OCC1=C(COC(=O)NC)C(C)N(c2ccc(OC)cc2)C1 (stereo not drawn)	55.2
CCC12C=CCN3CCC4(C(=C(C(=O)OC)[C@@H]1O)Nc1ccccc14)C32 (stereo partly drawn)	4.98
O=C(O)CN(CC(=O)O)C1CCCCC1N(CC(=O)O)CC(=O)NCCN=C=S (stereo not drawn)	> 100
Cc1nc(C(N)=S)sc1/C(CC(=O)C(=O)Nc1cccc2ccc(O)cc12)=N\NC(=O)c1ccncc1	> 100
Cc1cc(O)c2c(=O)c3ccccc3[nH]c2c1	64.7
N=c1n(C(=O)N2CCCC2)c2cc(Cl)ccc2n1C1=NCCN1	> 100
COc1nc(N)c(C(=O)CCl)c(=O)n1C	5.61
[N-]=[N+]=Nc1cc(=O)oc2ccccc12	> 100
Nc1cccc2cc(Cl)cnc12	> 100
C=C1c2nc3ccccc3n2C=C(c2ccccc2)N1c1ccc([N+](=O)[O-])cc1	> 88.1
Cc1ccccc1-n1c(=O)c2ncn(CCCl)c2n(-c2ccccc2C)c1=S	> 100

What follows are compounds tested on IGROV1 ovarian (assay: growth of human tumour cells (NCI), 48 h).

Structure (SMILES)	TGI	GI50 [µM]
CC(=O)Nc1ccc(-c2nnc(SCC(=O)Nc3ccc([N+](=O)[O-])cc3)o2)cc1	23.4 µM	
N.N.N.N.O=[N+]([O-])[O-].[Co+3].[N-]=[N+]=[N-].[N-]=[N+]=[N-]	> 100 µM	
COC(=O)C1CCC(=O)N1C(c1ccccc1)c1ccc(OC)c(OC)c1 (stereo not drawn)	> 100 µM	
Oc1cccc2c(Cl)ccnc12	> 29.7 µM	
Cc1cccc(/C=N/NC(=S)Nc2ccccc2)n1	> 25 µM	
N#CC1=C(N)N(c2ccccc2)C(c2ccco2)C1(C#N)C#N (stereo not drawn)	47.9 µM	
Cc1cc(=O)[nH]c(NN2C(Cl)C(=O)C2c2ccccc2O)n1 (stereo not drawn)	> 100 µM	
CC(C)c1ccc(/C=C2/C=C(c3ccc4ccccc4c3)OC2=O)cc1	> 100 µM	
COc1ccc(/C=C2\CCC(C)C3=C2NC(=S)NC3c2ccc(OC)c(OC)c2)cc1OC (stereo not drawn)	> 31.6 µM	
COc1ccc2c(=O)c(O)c(-c3ccc(OC)c(OC)c3)oc2c1	> 100 µM	
COc1ccc(C(OCC2OC(n3cc(C)c(=O)[nH]c3=O)CC2n2cc(Cn3cc(I)c(=O)[nH]c3=O)nn2)(c2ccccc2)c2ccccc2)cc1 (stereo not drawn)	> 100 µM	
C=C(C1=CC(=O)C(C)(C)O1)[C@@H]1CC=C([C@@H]2CC[C@H]3[C@@]2(C)CC[C@H]2C(C)(C)C(=O)[C@H](O)C[C@]32C)[C@H](O)O1	5.48 µM	
CC1=CC2C(O1)C1C(=O)C=CC(=O)C1=CC2[N+](=O)[O-] (stereo not drawn)	44.7 µM	
C=C(Br)C(C)(Cl)CCC(Br)C(C)(C)Cl (stereo not drawn)	> 100 µM	
Cc1c2cnccc2c(C)c2c1c1ccccc1n2CCCN	1.74 µM and 0.973 µM	0.198
O=C(CCC(=O)c1ccc(Cl)cc1)NO	> 100 µM	
COc1c(C)c(C/C=C(\C)CCCCO[Si](c2ccccc2)(c2ccccc2)C(C)(C)C)c(OC)c(OC)c1OC	42.2 µM	
CN1CCN([C@H]2C[C@H]3[C@@H]4CC=C5C[C@@H](O)CC[C@]5(C)[C@H]4CC[C@]3(C)C2=O)CC1	> 100 µM	
COc1ccc(C2c3cc4c(cc3OC(NNS(=O)(=O)c3ccc(C)cc3)C2C)OCO4)cc1 (stereo not drawn)	> 100 µM	
CNC(=O)OCC1=C(COC(=O)NC)C(C)N(c2ccc(OC)cc2)C1 (stereo not drawn)	> 100 µM	
CCC12C=CCN3CCC4(C(=C(C(=O)OC)[C@@H]1O)Nc1ccccc14)C32 (stereo partly drawn)	3.9 µM	
O=C(O)CN(CC(=O)O)C1CCCCC1N(CC(=O)O)CC(=O)NCCN=C=S (stereo not drawn)	> 100 µM	
